Test results from US10973831B2, “Fluoropiperidine compounds as pure 5-HT 6 receptor antagonists” (SUVEN LIFE SCIENCES LIMITED, priority 2017, dated 2021).

Tests used:
Male Wistar rats = assay: Object recognition task model; assay type: in vivo; settings: rat, 0.1 mg/kg, p.o.
Method: The cognition-enhancing properties of compounds of this invention were estimated using an animal model of cognition i.e., object recognition task.
Male Wistar rats (˜230-280 grams) were used as experimental animals. Four animals were housed in each cage. Animals were kept on 20% food deprivation before one day and given water ad libitum throughout the experiment and maintained on a 12 hours light/dark cycle. The rats were habituated to individual arenas for […] in the absence of any objects.
One group of 12 rats received vehicle (1 mL/kg) orally and another set of animals received compound of the formula (I) orally thirty minutes prior to familiar (T1) and choice trial (T2).
The experiment was carried out in a 50×50×50 cm open field made up of acrylic. During the familiarization phase (T1), the rats were placed individually in the open field for 3 minutes, in which two identical objects (plastic bottles, 12.5 cm height×5.5 cm diameter) covered in yellow masking tape alone (a1 and a2) were positioned in two adjacent corners (10 cm from the walls). After 24 hours of the (T1) trial, the same rats were placed in the same arena as they were placed in T1 trial. During the choice phase (T2) rats were allowed to explore the open field for 3 minutes in presence of one familiar object (a3) and one novel object (b) (Amber color glass bottle, 12 cm high and 5 cm in diameter). During the T1 and T2 trial, explorations of each object (defined as sniffing, licking, chewing or having moving vibrissae whilst directing the nose towards the object at a distance of less than 1 cm) were recorded separately by stopwatch.
T1 is the total time spent exploring the familiar objects (a1+a2).
T2 is the total time spent exploring the familiar object and novel object (a3+b).

[1] = Non-clinical toxicology, repeated dose toxicity study in rat; assay type: in vivo; settings: rat, female rats
Method: (§1) The safety of the example 1 of instant invention and comparator example of U.S. Pat. No. 7,378,415 were evaluated in repeated dose toxicity study in rat.
(§2) Female rats were used as experimental animals for evaluating the toxicity profile of example 1 of instant invention and the comparator example of U.S. Pat. No. 7,378,415.
(§3) During the study, female rats were dosed at incremental doses for minimum of 4 days. Toxicity assessment was done on the mortality, clinical observation, change in the body weight, feed consumption, clinical and anatomical pathology. Systemic exposures were also estimated for both of the compounds. All quantitative variables are compared with control group using one-way ANOVA followed by Dunnet's post-hoc test on GraphPad Prism Software version 4, 2003.

Female rats = assay: as above; assay type: in vivo; settings: repeated dose toxicity
Method: as §1, §2, §3

recombinant human 5-HT2A = biological target: T1, recombinant human 5-HT2A (Homo sapiens, UniProt P28223); assay: Determination of 5-HT2A binding ([3H]-Ketanserin radioligand, membranes); settings: human 5-HT2A membranes, [3H]-Ketanserin 1.75 nM
T1 construct: purchased Perkin Elmer ES-313-M400UA
Method: Membrane preparation from recombinant human 5-HT2A cell line (Cat no. ES-313-M400UA) and radio ligand Ketanserin Hydrochloride, [Ethylene-^3H]-(R-41468) (Cat no. NET791250UC) were purchased from Perkin Elmer. All other reagents used in buffer preparation were purchased from Sigma. The final ligand concentration was 1.75 nM; non-specific determinant was 1-NP [10 μM] and 5-HT2A membrane protein (5 μg/well). 1-NP was used as a positive control. Reactions were carried out in 67 mM Tris pH 7.6 containing 0.5 mM EDTA buffer for 60 minutes at 25° C. Reaction was stopped by rapid filtration followed by six washes of the binding mixture using 96 well harvest plate (Millipore Cat no. MSFBNXB50) pre coated with 0.33% polyethyleneimine. The plate was dried and the bound radioactivity collected on the filters was determined by scintillation counting using MicroBeta TriLux. Radio ligand binding in the presence of non-labeled compound was expressed as a percent of the total binding and plotted against the log concentration of the compound. Ki values were determined using a nonlinear, iterative curve-fitting computer program of Graph pad Prism 4 software.

T1 sequence (P28223 whole entry): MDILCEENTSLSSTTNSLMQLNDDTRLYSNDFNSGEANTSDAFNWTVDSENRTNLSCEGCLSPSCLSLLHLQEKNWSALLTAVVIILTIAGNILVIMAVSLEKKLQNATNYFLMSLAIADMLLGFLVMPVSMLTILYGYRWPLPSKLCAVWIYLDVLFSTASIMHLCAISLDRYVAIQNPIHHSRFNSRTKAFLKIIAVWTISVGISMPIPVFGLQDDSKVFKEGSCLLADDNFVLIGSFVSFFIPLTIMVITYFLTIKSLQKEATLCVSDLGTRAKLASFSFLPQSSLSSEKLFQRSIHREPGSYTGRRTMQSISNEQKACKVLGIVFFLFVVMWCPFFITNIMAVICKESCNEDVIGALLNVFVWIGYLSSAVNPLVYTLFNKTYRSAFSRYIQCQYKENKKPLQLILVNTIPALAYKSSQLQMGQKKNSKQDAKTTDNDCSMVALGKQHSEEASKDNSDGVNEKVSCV

With `Cl.O=S(=O)(c1ccccc1)c1ccc2c(c1)OCCN2C1CCNCC1F` (single isomer, unassigned; peak iii) [Example 1, 7-Phenylsulfonyl-4-(3-fluoropiperidin-4-yl)-3,4-dihydro-2H-benzo[1,4]oxazine hydrochloride (Peak III)] the “Exploration time mean ± S.E.M, Familiar object” value (Male Wistar rats; choice trial T2) was 7.03 ± 1.1 s, the “Exploration time mean ± S.E.M, Novel object” value (Male Wistar rats; choice trial T2) was 12.16 ± 0.72 s and the Inference (Male Wistar rats; object recognition task) was “Active”. The NOAEL at 4 days ([1]; in vivo, 4-Day repeat tox) was 300 mg/kg, the MTD ([1]; in vivo, repeated incremental doses, read-out: Maximum Tolerated Dose) was at least 300 mg/kg and the AUC ([1]; plasma, repeated dose toxicity study, read-out: AUC (systemic exposure in toxicity study)) was 38100 ng·h/mL. The Cmax ([1]; plasma, repeated dose toxicity study, read-out: Cmax (systemic exposure in toxicity study)) was 2420 ng/mL, the “Findings (mortality)” value (Female rats) was “No death up” and the “Findings (mortality)” value (Female rats; listed as example 1) was “no deaths were observed at doses as high as 300 mg/kg”. It also gave a Ki (recombinant human 5-HT2A) of 130 nM.
